Measurements from patent publication US8598202B2, “Aryl-hydroxyethylamino-pyrimidines and triazines as modulators of fatty acid amide hydrolase” (Janssen Pharmaceutica NV, priority 2008, dated 2013).
Where a name gives a salt, the structure may show the parent alone.

Key:
Rat FAAH-1 = target: T1, Rat FAAH-1 (Rattus norvegicus, UniProt P97612); assay: Assay Method 2: rat FAAH-1 assay, 3H-anandamide hydrolysis in homogenate of SK-N-MC cells transfected with rat FAAH
T1 sequence (P97612 1-579): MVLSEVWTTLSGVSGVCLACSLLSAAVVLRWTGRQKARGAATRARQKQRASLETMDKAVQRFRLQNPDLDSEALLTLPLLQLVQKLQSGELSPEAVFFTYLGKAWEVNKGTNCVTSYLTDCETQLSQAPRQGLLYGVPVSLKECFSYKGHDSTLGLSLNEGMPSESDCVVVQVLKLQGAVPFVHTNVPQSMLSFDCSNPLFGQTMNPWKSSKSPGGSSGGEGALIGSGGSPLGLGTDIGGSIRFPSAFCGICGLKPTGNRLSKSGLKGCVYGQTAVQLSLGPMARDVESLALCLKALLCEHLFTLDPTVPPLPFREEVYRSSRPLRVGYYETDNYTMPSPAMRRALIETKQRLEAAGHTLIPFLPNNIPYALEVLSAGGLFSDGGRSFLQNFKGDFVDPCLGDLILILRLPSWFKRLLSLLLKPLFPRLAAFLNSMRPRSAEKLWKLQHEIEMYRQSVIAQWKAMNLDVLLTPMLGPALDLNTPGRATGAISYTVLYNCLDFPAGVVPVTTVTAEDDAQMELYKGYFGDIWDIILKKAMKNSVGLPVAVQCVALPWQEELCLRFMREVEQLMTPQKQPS

FAAH = target: T2, FAAH (Homo sapiens, UniProt O00519); assay: Assay Method 1: FAAH assay, 3H-anandamide hydrolysis in homogenate of T84 cells or SK-N-MC cells transfected with human FAAH
T2 sequence (O00519 1-579): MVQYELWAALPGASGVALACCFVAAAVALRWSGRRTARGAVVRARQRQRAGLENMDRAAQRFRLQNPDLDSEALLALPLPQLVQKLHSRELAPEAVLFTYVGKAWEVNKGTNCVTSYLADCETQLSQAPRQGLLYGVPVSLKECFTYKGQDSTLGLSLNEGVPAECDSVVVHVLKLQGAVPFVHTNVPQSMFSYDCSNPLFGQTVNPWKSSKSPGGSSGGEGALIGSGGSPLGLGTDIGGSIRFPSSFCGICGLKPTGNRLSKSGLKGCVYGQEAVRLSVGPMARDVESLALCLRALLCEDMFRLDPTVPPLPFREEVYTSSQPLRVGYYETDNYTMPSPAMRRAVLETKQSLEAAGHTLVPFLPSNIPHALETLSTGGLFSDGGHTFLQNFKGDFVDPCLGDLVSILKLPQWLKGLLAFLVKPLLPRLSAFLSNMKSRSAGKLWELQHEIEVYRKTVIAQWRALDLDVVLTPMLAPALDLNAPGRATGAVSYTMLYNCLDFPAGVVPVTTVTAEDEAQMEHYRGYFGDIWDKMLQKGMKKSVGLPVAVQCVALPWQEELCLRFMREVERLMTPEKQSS

`CC(C)(C#N)c1ccc(-c2cc(NC[C@H](O)c3ccccc3)ncn2)cc1` [Example 50, 2-[4-(6-{[(2R)-2-Hydroxy-2-phenylethyl]amino}pyrimidin-4-yl)phenyl]-2-methylpropanenitrile trifluoroacetic acid salt] was tested. Which IC50 (Rat FAAH-1) did it give?
Its IC50 is 985 nM.

And the IC50 (FAAH)?
The IC50 was 92 nM.

For `O[C@@H](CNc1cc(-c2ccc(OC(F)(F)F)c(F)c2)ncn1)c1ccc(F)cc1` [Example 174, (1R)-1-(4-Fluorophenyl)-2-({6-[3-fluoro-4-(trifluoromethoxy)phenyl]pyrimidin-4-yl}amino)ethanol trifluoroacetic acid salt], which IC50 (Rat FAAH-1) is on record?
Its IC50 is 5 nM.

What about the IC50 (FAAH) of the same compound?
The IC50 was 2 nM.

For `OC(CNc1cc(-c2ccc(C(F)(F)F)c(Cl)c2)ncn1)c1cc2ccccc2s1` (stereo not shown) [Example 196, 1-(1-Benzothiophen-2-yl)-2-({6-[3-chloro-4-(trifluoromethyl)phenyl]pyrimidin-4-yl}amino)ethanol], which IC50 (Rat FAAH-1) is on record?
The IC50 was 43 nM.

What about the IC50 (FAAH) of the same compound?
The IC50 was 108 nM.

`OC(CNc1cc(-c2ccc(Cl)cc2)ncn1)c1ccccc1` (stereo not shown) [Example 2, 2-{[6-(4-Chlorophenyl)pyrimidin-4-yl]amino}-1-phenylethanol] was tested. Which IC50 (Rat FAAH-1) did it give?
The IC50 was 1300 nM.

What about the IC50 (FAAH) of the same compound?
The IC50 was 350 nM.

Which results are given for `C[C@@H](Nc1cc(-c2ccc(OC(F)(F)F)cc2)ncn1)[C@@H](O)c1ccccc1` [Example 150, (1S,2R)-1-Phenyl-2-[(6-{4-[(trifluoromethyl)oxy]phenyl}pyrimidin-4-yl)amino]propan-1-ol]?
IC50 (Rat FAAH-1): 5000 nM; IC50 (FAAH): 1500 nM

What does the source list for `O[C@@H](CNc1cc(-c2cnc(N3CCOCC3)nc2)ncn1)c1ccccc1` [Example 69, (1R)-2-[(2′-Morpholin-4-yl-4,5′-bipyrimidin-6-yl)amino]-1-phenylethanol]?
IC50 (Rat FAAH-1): > 10000 nM; IC50 (FAAH): 900 nM

Which results are given for `O[C@@H](CNc1cc(-c2ccc(Cl)c(F)c2)ncn1)c1ccccc1` [Example 27, (1R)-2-{[6-(4-Chloro-3-fluorophenyl)pyrimidin-4-yl]amino}-1-phenylethanol trifluoroacetic acid salt]?
IC50 (Rat FAAH-1): 120 nM; IC50 (FAAH): 24 nM

With `Cc1ccc(-c2cc(NC[C@H](O)c3ccccc3)ncn2)cc1Cl` [Example 39, (1R)-2-{[6-(3-Chloro-4-methylphenyl)pyrimidin-4-yl]amino}-1-phenylethanol trifluoroacetic acid salt] as the compound, how does the IC50 (Rat FAAH-1) read?
Its IC50 is 60 nM.

And the IC50 (FAAH)?
Its IC50 is 18 nM.

`CC(C)Oc1ccc(-c2cc(NCC(O)c3ccccc3)ncn2)cc1` (stereo not shown) [Example 12, 2-[(6-{4-[(1-Methylethyl)oxy]phenyl}pyrimidin-4-yl)amino]-1-phenylethanol] was tested. Which IC50 (Rat FAAH-1) did it give?
The IC50 was 382 nM.

What about the IC50 (FAAH) of the same compound?
The IC50 was 186 nM.

Which results are given for `O=[N+]([O-])c1ccc(C(O)CNc2cc(-c3ccc(OC(F)(F)F)cc3)ncn2)cc1` (stereo not shown) [Example 107, 1-(4-Nitrophenyl)-2-[(6-{4-[(trifluoromethyl)oxy]phenyl}pyrimidin-4-yl)amino]ethanol]?
IC50 (Rat FAAH-1): 320 nM; IC50 (FAAH): 240 nM

How did the IC50 (Rat FAAH-1) turn out when `O[C@@H](CNc1cc(-c2ccc(C(F)(C(F)(F)F)C(F)(F)F)cc2)ncn1)c1ccccc1` [Example 219, (1R)-Phenyl-2-{6-[4-(1,2,2,2-tetrafluoro-1-trifluoromethyl-ethyl)-phenyl]-pyrimidin-4-ylamino}-ethanol] was run?
The IC50 was greater than 10000 nM.

What about the IC50 (FAAH) of the same compound?
The IC50 was 2000 nM.

What does the source list for `OC(CNc1cc(-c2ccc(C(F)(F)F)c(Cl)c2)ncn1)c1ccsc1` (stereo not shown) [Example 168, 2-({6-[3-Chloro-4-(trifluoromethyl)phenyl]pyrimidin-4-yl}amino)-1-thiophen-3-ylethanol]?
IC50 (Rat FAAH-1): 42 nM; IC50 (FAAH): 66 nM

How did the IC50 (Rat FAAH-1) turn out when `O=S(=O)(c1ccc(-c2cc(NC[C@H](O)c3ccccc3)ncn2)cc1)N1CCCCC1` [Example 79, (1R)-1-Phenyl-2-({6-[4-(piperidin-1-ylsulfonyl)phenyl]pyrimidin-4-yl}amino)ethanol] was run?
Its IC50 is 530 nM.

And the IC50 (FAAH)?
The IC50 was 542 nM.

With `OC(CNc1cc(-c2ccc(OC(F)(F)F)cc2)ncn1)c1cccc(Cl)c1` (stereo not shown) [Example 116, 1-(3-Chlorophenyl)-2-[(6-{4-[(trifluoromethyl)oxy]phenyl}pyrimidin-4-yl)amino]ethanol] as the compound, how does the IC50 (Rat FAAH-1) read?
Its IC50 is 110 nM.

What about the IC50 (FAAH) of the same compound?
Its IC50 is 90 nM.

With `OC(CNc1cc(-c2cc3ccccc3s2)ncn1)c1ccccc1` (stereo not shown) [Example 227, 2-(6-Benzo[b]thiophen-2-yl-pyrimidin-4-ylamino)-1-phenyl-ethanol] as the compound, how does the IC50 (Rat FAAH-1) read?
Its IC50 is 216 nM.

What about the IC50 (FAAH) of the same compound?
The IC50 was 33 nM.

Which IC50 (Rat FAAH-1) does the source give for `OC(CNc1cc(-c2ccc(C(F)(F)F)c(Cl)c2)ncn1)c1ccc2ccccc2c1` (stereo not shown) [Example 192, 2-({6-[3-Chloro-4-(trifluoromethyl)phenyl]pyrimidin-4-yl}amino)-1-naphthalen-2-ylethanol] here?
Its IC50 is 6 nM.

What about the IC50 (FAAH) of the same compound?
The IC50 was 47 nM.

For `NCCNc1nc(NC[C@H](O)c2ccccc2)cc(-c2ccc(C(F)(F)F)c(Cl)c2)n1` [Example 157, (1R)-2-({2-[(2-Aminoethyl)amino]-6-[3-chloro-4-(trifluoromethyl)phenyl]pyrimidin-4-yl}amino)-1-phenylethanol trifluoroacetic acid salt], which IC50 (Rat FAAH-1) is on record?
The IC50 was 4000 nM.

What about the IC50 (FAAH) of the same compound?
The IC50 was 2000 nM.

How did the IC50 (Rat FAAH-1) turn out when `CC(C)(C)NS(=O)(=O)c1ccc(-c2cc(NC[C@H](O)c3ccccc3)ncn2)cc1` [Example 171, N-tert-Butyl-4-(6-{[(2R)-2-hydroxy-2-phenylethyl]amino}pyrimidin-4-yl)benzenesulfonamide] was run?
Its IC50 is greater than 10000 nM.

What about the IC50 (FAAH) of the same compound?
Its IC50 is 1600 nM.

Which results are given for `CC(O)c1ccc(-c2cc(NC[C@H](O)c3ccccc3)ncn2)cc1F` (stereo partly drawn) [Example 129, (1R)-2-({6-[3-Fluoro-4-(1-hydroxyethyl)phenyl]pyrimidin-4-yl}amino)-1-phenylethanol trifluoroacetic acid salt]?
IC50 (Rat FAAH-1): 120 nM; IC50 (FAAH): 16 nM

For `Cc1cc(-c2cc(NC[C@H](O)c3ccccc3)ncn2)ccc1Cl` [Example 26, (1R)-2-{[6-(4-Chloro-3-methylphenyl)pyrimidin-4-yl]amino}-1-phenylethanol trifluoroacetic acid salt], which IC50 (Rat FAAH-1) is on record?
The IC50 was 163 nM.

And the IC50 (FAAH)?
Its IC50 is 52 nM.

`Cn1ccc2cc(-c3cc(NC[C@H](O)c4ccccc4)ncn3)ccc21` [Example 90, (1R)-2-{[6-(1-Methyl-1H-indol-5-yl)pyrimidin-4-yl]amino}-1-phenylethanol trifluoroacetic acid salt] was tested. Which IC50 (Rat FAAH-1) did it give?
Its IC50 is 675 nM.

And the IC50 (FAAH)?
Its IC50 is 4 nM.

What does the source list for `O[C@@H](CNc1cc(-c2ccc3ncccc3c2)ncn1)c1ccccc1` [Example 170, (1R)-1-Phenyl-2-[(6-quinolin-6-ylpyrimidin-4-yl)amino]ethanol]?
IC50 (Rat FAAH-1): 4000 nM; IC50 (FAAH): 81 nM

With `O[C@@H](CNc1cc(-c2ccc3c(C(F)(F)C(F)(F)F)noc3c2)ncn1)c1ccc(F)cc1` [Example 176, (1R)-1-(4-fluorophenyl)-2-({6-[3-(pentafluoroethyl)-1,2-benzisoxazol-6-yl]pyrimidin-4-yl}amino)ethanol trifluoroacetic acid salt] as the compound, how does the IC50 (Rat FAAH-1) read?
Its IC50 is 10 nM.

What about the IC50 (FAAH) of the same compound?
Its IC50 is 9 nM.

Which IC50 (Rat FAAH-1) does the source give for `OC(CNc1cc(-c2ccc(C(F)(F)F)c(Cl)c2)ncn1)c1nccs1` (stereo not shown) [Example 169, 2-({6-[3-Chloro-4-(trifluoromethyl)phenyl]pyrimidin-4-yl}amino)-1-(1,3-thiazol-2-yl)ethanol] here?
The IC50 was 8000 nM.

And the IC50 (FAAH)?
The IC50 was 6000 nM.

For `O[C@@H](CNc1cc(-c2ccc(N3CCOCC3)nc2)ncn1)c1ccccc1` [Example 70, (1R)-2-{[6-(6-Morpholin-4-ylpyridin-3-yl)pyrimidin-4-yl]amino}-1-Phenylethanol], which IC50 (Rat FAAH-1) is on record?
The IC50 was greater than 10000 nM.

And the IC50 (FAAH)?
The IC50 was 800 nM.

What does the source list for `CC(=O)Nc1cccc(-c2cc(NCC(O)c3ccccc3)ncn2)c1` (stereo not shown) [Example 242, N-{3-[6-(2-Hydroxy-2-phenyl-ethylamino)-pyrimidin-4-yl]-phenyl}-acetamide]?
IC50 (Rat FAAH-1): > 10000 nM; IC50 (FAAH): > 10000 nM

With `O[C@@H](CNc1ncnc(-c2ccc(C(F)(F)F)cc2)n1)c1ccccc1` [Example 103, (1R)-1-Phenyl-2-({4-[4-(trifluoromethyl)phenyl]-1,3,5-triazin-2-yl}amino)ethanol trifluoroacetic acid salt] as the compound, how does the IC50 (Rat FAAH-1) read?
The IC50 was 350 nM.

And the IC50 (FAAH)?
Its IC50 is 305 nM.

`OC(CNc1cc(-c2ccc(C(F)(F)F)c(Cl)c2)ncn1)c1ccc(-c2cccs2)cc1` (stereo not shown) [Example 194, 2-({6-[3-Chloro-4-(trifluoromethyl)phenyl]pyrimidin-4-yl}amino)-1-(4-thiophen-2-ylphenyl)ethanol] was tested. Which IC50 (Rat FAAH-1) did it give?
Its IC50 is 210 nM.

And the IC50 (FAAH)?
The IC50 was 11 nM.

Which IC50 (Rat FAAH-1) does the source give for `CC(C)COc1ccc(-c2cc(NC[C@H](O)c3ccccc3)ncn2)cc1` [Example 37, (1R)-2-({6-[4-(2-Methylpropoxy)phenyl]pyrimidin-4-yl}amino)-1-phenylethanol trifluoroacetic acid salt] here?
The IC50 was 8000 nM.

What about the IC50 (FAAH) of the same compound?
The IC50 was 400 nM.
